# “Also recorded” adds a separate entry of the source. Where two headings read alike, the source gives them in different places. Numbered stars: 1 amine (or outer) side, 2 acyl side, 3 side chain; on linkers, the order of the positions; unused ones are H or OH. Bridge positions count the residues as written; N and C are the ends. Square brackets hold non-standard residues; d marks the D form. Peptide text beside a SMILES is read from it. * marks the point of attachment. X2 = O=C1OC(C2CCCN2[*:1])=NC1C(=S)NC(CO)C(=O)[*:2]; X1 = CC(C)CC(=O)C1=NC(C(=S)NCC(=O)*)C(=O)O1
# How the values were obtained:
# [1] = test system: LPP−/− mitochondria; experiment: Chelator treatment of freshly isolated copper burdened LPP−/− mitochondria (copper extraction); set-up: species or system rat; details: 2 mM each, 30 min incubation
# [2] = test system: HepG2 cells; experiment: Cellular MB uptake by competitive ELISA; type: in vitro ADME; details: 2 and 24 hours
# Description: Cellular MB uptake was determined from cell lysates incubated for 2 or 24 h with MB at different concentrations by a competitive ELISA using a monoclonal anti-MB antibody.
# Competitive ELISA. All 86 TCS were diluted 1:10 with buffer (PBS, 5% FCS, 0.01% sodium acide). 50 μl of each TCS were pre-incubated with 50 μl MB solution (1000 ng/ml in buffer) or buffer overnight. The experiments were run in duplicates. 50 μl of the pre-incubated sample were added to ELISA plates coated with MB as used for screening. After 10 min, the plates were washed, bound antibodies against MB were detected with HRP conjugated mAbs against the rat IgG isotypes and HRP was visualized with TMB. MAbs that recognized free MB (no signal when pre-incubated with MB, positive signal in the buffer control) were further analyzed in a serial dilution of MB (1000 ng/ml to 2 ng/ml). The four mAbs that best recognized free MB were established (10610, 12D9, 18H7, 21G5, all of rat IgG2a subclass). To increase the sensitivity of the test system, the TCS of the established hybridomas were titrated on ELISA plates coated with MB. The titer of […] was far better (1:1260) than of 12D9 (1:320), 18H7 (1:10) and 21G5 (1:320).
# For the test system 10610 was used at a dilution of 1:500 and the pre-incubation time reduced to one hour.
# [3] = test system: HepG2 cells; experiment: Neutral red cell toxicity assay; type: cell-based; details: 24 hours, 0.05 to 1 mM Zinc-MB
# Description: Neutral red cell toxicity assay was done as described elsewhere (Repetto et al., Nat Protoc 3, 1125-1131 (2008)). In brief, 2×10^4 cells were incubated for 24 hours either with medium alone (containing 2% FCS, negative control), 0.05 to
# 1 mM Zinc-MB, or 0.25 mM CCCP as mitochondriotoxic positive control and subsequently analyzed by neutral red.
# [4] = test system: HepG2 cells; experiment: Mitochondrial membrane potential staining of HepG2 cells; type: cell-based; details: 500 μM MB
# Description: For immunofluorescence staining, 2×10^4 cells were incubated with either medium alone, 500 μM MB or 250 μM CCCP in black 96-well plates with clear glass bottom. Staining was done by 1.6 μM Hoechst 33342 (ex 360-400 nm, em 410-480 nm), 300 nM MitoTracker® red (ex 620-640 nm, em 650-760 nm), and 1 μM nonyl acridine orange (NAO, ex 460-490 nm, em 500-550 nm) for 40 minutes at 37° C. After a washing step, fluorescence was analyzed.
# [5] = test system: LPP+/− rats; details: rat, in vivo
# Description: (§1) LPP rats were treated with MB either by daily i.p. injections for 3 or 5 consecutive days, or twice daily i.p. injections for 8 consecutive days at a dose of 150 mg/kg bw or 4 days via the drinking water with D-PA at a dose of 100 mg/kg bw/d or TETA at 480 mg/kg bw/d, respectively (Togashi et al., Hepatology 15, 82-87 (1992)). Based on a mean copper content of 250 μg/g w.w. in Atp7b−/− rat livers at the age of treatment start (Zischka et al., log. cit.), a LPP−/− rat liver of 8 g w.w. contains around 31.5 μmol copper. Single MB doses were chosen equimolar to this copper amount. […] Assuming 40 ml water intake per day for a rat weighing 250 g this translates to a dose of 480 mg/kg bw/d. With respect to the mean liver copper content in LPP−/− rats aged 85 days, the molar ratios of the chelators applied was MB 1:D-PA 4.3:TETA 17.4, respectively. For the intravenous MB application (150 mg/kg bw), catheters connected to a PinPort™ (Instech Laboratories, Inc., USA) were inserted in the femoral vein of the rat, fixed with non-absorbable sutures and subcutaneously tunneled and exteriorized through a skin incision made between the shoulders.
# [6] = MB in serum after i.p. injection; type: in vivo, rat
# Description: as §1, with “For the intravenous MB application (150 mg/kg bw), catheters connected to a PinPort™ (Instech Laboratories, Inc., USA) were inserted in the femoral vein of the rat, fixed with non-absorbable sutures and subcutaneously tunneled and exteriorized through a skin incision made between the shoulders.” left out
# Competitive ELISA. […] After 10 min, the plates were washed, bound antibodies against MB were detected with HRP conjugated mAbs against the rat IgG isotypes and HRP was visualized with TMB. MAbs that recognized free MB (no signal when pre-incubated with MB, positive signal in the buffer control) were further analyzed in a serial dilution of MB (1000 ng/ml to 2 ng/ml). […]
# [7] = test system: LPP−/− rats; experiment: Repetitive MB treatment cycles in LPP−/− rats; type: in vivo, rat
# Excerpt: Due to the efficiency of the short-term MB treatment, we did a first test aiming at replacing daily chelation therapy by a regimen consisting of repetitive treatment cycles interrupted by longer observation cycles (FIG. 14). Five LPP−/− rats as well as five age- and sex-matched LPP+/− controls were included. One pair of rats was sacrificed at experimental days 1, 8, 29, 36 and 85, respectively. […] The four remaining LPP−/− rats were subjected to the first treatment cycle consisting of three daily MB injections (i.p.) for five days. […] Upon the second treatment cycle copper loads decreased again, but now down to 25% of the starting values, resulting in an unprecedented low copper load in LPP−/− mitochondria (day 36, pair 4). […] At experimental day 85, liver and mitochondrial copper loads had risen back to values before beginning of the treatment (day 1), associated with an impaired mitochondrial function (65% ATP production capacity) in comparison to its LPP+/− control (pair 5).
# [8] = Stability analysis of MB by absorbance of oxazolone rings; type: physicochemical; details: time and/or temperature
# Description: (C) Stability analysis of metal free MB and Zn-loaded MB followed by absorbance measurements of their two metastable oxazolone rings (OxaA/ZnA at 394 nm and OxaB/ZnB at 340 nm)^57 at 37° C.
# HepG2 cells were kept in MEM with 2% FCS. […] Therefore, Zn-MB, generated by preparing a 20 mM MB solution and adding an equimolar concentration of Zn solution under pH control, was used in cell culture experiments.
# [9] = biological target: mitochondrial respiratory complex IV (Rattus norvegicus, UniProt P00406+P05503)
# [10] = day 36, after second treatment cycle
# Chain of mitochondrial respiratory complex IV (P00406 whole entry, other chains not shown): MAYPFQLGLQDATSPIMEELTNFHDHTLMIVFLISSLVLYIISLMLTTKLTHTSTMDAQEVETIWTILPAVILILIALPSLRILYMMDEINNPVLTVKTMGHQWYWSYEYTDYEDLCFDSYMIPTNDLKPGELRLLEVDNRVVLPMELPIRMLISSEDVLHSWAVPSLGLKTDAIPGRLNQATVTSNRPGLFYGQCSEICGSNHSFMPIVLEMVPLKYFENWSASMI
structure (smiles),measurement,setting,value
CSCCC(NC(=O)C1CSSCC(NC(=O)C(CO)NC(=O)CNC(=S)C2N=C(C(=O)CC(C)C)OC2=O)C(=O)NC(Cc2ccc(O)cc2)C(=O)N2CCCC2C2=NC(C(=O)O2)C(=S)NC(CO)C(=O)N1)C(=O)O (centres unmarked) [MB] (X1-SCY[X2]CM-OH; disulfide 2-5; configuration not given here),copper associated with LPP−/− mitochondria,[1],rapidly decreased copper
same,intracellular MB uptake,[2],taken up in a dose dependent manner
same,cytotoxic effects (neutral red),[3],only observed at millimolar MB concentrations
same,mitochondrial membrane potential,[4],reduced the mitochondrial membrane potential only partially; also recorded: only intermediate phases of mitochondrial membrane potential loss
same,"body weight, liver copper concentration, serum AST and bilirubin",[5],remained within the physiological range
same,signs of toxicity,[5],did not exhibit any signs of toxicity
same,time MB detectable in the serum,[6],30 min
same,time MB detectable in the serum,[6]; n=2,half an hour
same,copper loads relative to starting values,[7]; [10],25%
same,decoppering efficiency,[7]; [10],75%
same,ATP production capacity vs LPP+/− control,[7]; experimental day 85,65%
same,reduction in copper load,"[7]; experimental day eight, after first cycle (three daily MB i.p. for five days)",40%
same,health status during observation period,[7]; further seven weeks after second cycle,stayed healthy
same,mitochondrial and liver copper load,[7]; recurrent treatment cycles,marked reduction in mitochondrial and liver copper load
same,time/age to disease onset vs untreated LPP−/− rats,[7]; recurrent treatment cycles,doubling of the age; also recorded: doubling of time before disease onset
same,decay,[8],susceptible to time- and/or temperature-dependent decay
same,toxicity to copper-dependent respiratory complex IV activity,[9],significantly less toxic than TTM

# Source: US11000568B2, “Means and methods for treating copper-related diseases” (HELMHOLTZ ZENTRUM MÜNCHEN—DEUTSCHES FORSCHUNGSZENTRUM FÜR …, priority 2015, dated 2021)
